Source: patent US8426588B2, “Phenylalanine derivatives” (Ajinomoto Co, Inc., priority 2000, dated 2013)

Columns and labels:
integrin α4β1 = target: T1, integrin α4β1 (Homo sapiens, UniProt P05556+P13612); experiment: VCAM antagonist activity (VCAM-1/α4β1 binding assay), Jurkat cells binding to VCAM-1; assay type: cell-based; conditions: Jurkat human T cells binding to recombinant human VCAM-1; read-out: VCAM antagonistic activity (IC50) α4β1
T1 construct: cell strain Jurkat (ATCC TIB-152) of human T cells, known to express integrin α4β1; endogenous in cells; host or cells: Jurkat (ATCC TIB-152)
Experimental: VCAM Antagonist Activity (VCAM-1/α4β1 Binding Assay)
The capacity of a test substance antagonistic to the binding of cell strain Jurkat (ATCC TIB-152) of human T cells, known to express integrin α4β1, to VCAM-1 was determined.
(§1) 100 μl/well of a solution (500 ng/ml) of recombinant human VCAM-1 (R & D systems) solution diluted with buffer A (0.1 M NaHCO3, pH 9.6) was added to a micro titer plate having 96 wells (Nunc Maxisorp). After the incubation at 4° C. overnight, unbound VCAM-1 was removed by washing once with PBS. After completion of the washing, a buffer (buffer B) obtained by diluting Block Ace (Dainippon Pharmaceutical Co., Ltd.) with PBS to ¼ concentration was added in an amount of 150 μl/well. After the incubation at room temperature for 1 hour, buffer B was removed and the plate was washed with PBS once.
Jurkat cells were washed with Dulbecco modified Eagle medium (SIGMA, hereinafter referred to as “DMEM”) twice and then incubated in DMEM containing 10 μg/ml of Calcein-AM (Wako Pure Chemical Industries, Ltd.) at 37° C. in dark place for 30 minutes to label with fluorescence. The cells were again suspended in a binding buffer (20 mM HEPES, DMEM containing 0.1% BSA).
(§2) 50 μl of a test substance of various concentrations obtained by the dilution with the binding buffer was added to the plate. Immediately thereafter, 50 μl (final volume: 100 μl/well) of the fluorescent Jurkat cells (4×10^6 cells/ml) were added thereto, and they were incubated in dark place at room temperature for 30 minutes. After the shaking on a plate shaker (IKA MTS-4) at 800 rpm for 30 seconds, the solution was immediately removed to remove the unbound cells. The fluorescence quantity of the bound cells remaining in the wells was determined with a fluorescent plate reader (Wallac 1920 ARVO multi-label counter) (filter excitation wave length: 485 nm, emission wave length: 535 nm). The fluorescent strength thus obtained is proportional to the number of Jurkat cells bound to VCAM-1 and remaining on the plate. The binding rate of each test material in various concentrations was determined while the fluorescent strength of the test material-free well was determined to be 100%.

integrin α4β7 = target: T2, integrin α4β7 (Homo sapiens, UniProt P13612+P26010); experiment: VCAM antagonistic activity (VCAM-1/α4β7 binding assay), RPMI-8866 cells binding to VCAM-1; assay type: cell-based; conditions: RPMI-8866 human B lymphoma cells binding to recombinant human VCAM-1; binding buffer with 4 mM MnCl2
T2 construct: lymphoma cell strain RPMI-8866 of human B cells, known to express integrin α4β7; endogenous in cells; host or cells: RPMI-8866
T2 sequence (P13612 34-1032): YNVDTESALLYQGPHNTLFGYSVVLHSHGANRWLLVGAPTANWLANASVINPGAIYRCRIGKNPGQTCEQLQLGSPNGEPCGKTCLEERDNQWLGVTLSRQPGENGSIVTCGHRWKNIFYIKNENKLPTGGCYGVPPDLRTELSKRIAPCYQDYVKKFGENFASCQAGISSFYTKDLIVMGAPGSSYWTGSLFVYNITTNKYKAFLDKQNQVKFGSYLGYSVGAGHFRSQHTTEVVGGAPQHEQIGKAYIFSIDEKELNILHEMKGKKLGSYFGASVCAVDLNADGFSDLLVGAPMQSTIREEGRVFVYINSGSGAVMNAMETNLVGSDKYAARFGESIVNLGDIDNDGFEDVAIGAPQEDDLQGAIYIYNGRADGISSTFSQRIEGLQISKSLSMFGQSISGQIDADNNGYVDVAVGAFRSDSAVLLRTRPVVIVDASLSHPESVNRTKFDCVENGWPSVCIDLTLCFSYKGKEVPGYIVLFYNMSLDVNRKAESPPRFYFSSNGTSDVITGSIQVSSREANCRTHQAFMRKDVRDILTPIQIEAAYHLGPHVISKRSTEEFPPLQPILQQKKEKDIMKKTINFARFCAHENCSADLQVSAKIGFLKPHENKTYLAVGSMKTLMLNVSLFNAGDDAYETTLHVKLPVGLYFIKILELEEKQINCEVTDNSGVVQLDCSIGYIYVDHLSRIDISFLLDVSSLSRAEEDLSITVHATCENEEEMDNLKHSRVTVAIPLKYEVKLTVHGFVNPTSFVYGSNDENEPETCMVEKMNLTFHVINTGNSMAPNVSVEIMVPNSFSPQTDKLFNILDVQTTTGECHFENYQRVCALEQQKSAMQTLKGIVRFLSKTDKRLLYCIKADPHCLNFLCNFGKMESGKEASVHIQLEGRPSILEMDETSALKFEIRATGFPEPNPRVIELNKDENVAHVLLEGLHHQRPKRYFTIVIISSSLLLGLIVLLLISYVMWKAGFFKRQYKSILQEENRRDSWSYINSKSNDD
T2 sequence (P26010 20-798): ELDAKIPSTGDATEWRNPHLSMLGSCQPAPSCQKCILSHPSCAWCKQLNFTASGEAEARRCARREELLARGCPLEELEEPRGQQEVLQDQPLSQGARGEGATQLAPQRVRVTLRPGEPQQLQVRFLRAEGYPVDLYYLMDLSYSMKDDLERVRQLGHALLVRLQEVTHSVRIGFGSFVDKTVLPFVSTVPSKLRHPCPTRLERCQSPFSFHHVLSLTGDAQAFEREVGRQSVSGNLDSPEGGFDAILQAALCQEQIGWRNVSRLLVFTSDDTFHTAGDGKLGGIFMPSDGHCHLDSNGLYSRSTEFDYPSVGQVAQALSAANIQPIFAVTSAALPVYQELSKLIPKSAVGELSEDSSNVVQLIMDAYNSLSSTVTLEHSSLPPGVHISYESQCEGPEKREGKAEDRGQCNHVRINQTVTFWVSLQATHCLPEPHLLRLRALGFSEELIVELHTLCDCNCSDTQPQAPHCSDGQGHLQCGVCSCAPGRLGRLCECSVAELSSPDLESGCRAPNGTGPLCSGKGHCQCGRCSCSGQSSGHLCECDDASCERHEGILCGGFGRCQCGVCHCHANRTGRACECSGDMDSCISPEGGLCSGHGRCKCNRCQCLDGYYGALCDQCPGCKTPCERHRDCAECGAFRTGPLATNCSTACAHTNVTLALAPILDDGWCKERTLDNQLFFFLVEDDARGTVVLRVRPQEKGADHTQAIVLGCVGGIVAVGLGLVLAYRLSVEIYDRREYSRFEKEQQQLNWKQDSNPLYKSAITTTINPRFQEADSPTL
Experimental: VCAM Antagonistic Activity (VCAM-1/α4β7 Binding Assay)
The capacity of a test substance antagonistic to the binding of lymphoma cell strain RPMI-8866 of human B cells, known to express integrin α4β7, to VCAM-1 was determined.
as §1
RPMI-8866 cells were washed with DMEM twice and incubated in Dulbecco modified Eagle medium containing 10 μg/ml of Calcein-AM (Wako Pure Chemical Industries, Ltd.) (SIGMA, hereinafter referred to as “DMEM”) in dark place at 37° C. for 30 minutes to label with fluorescence. The cells were again suspended in a binding buffer (20 mM HEPES, DMEM containing 0.1% BSA) containing 4 mM of MnCl2.
as §2, with “RPMI-8866” for “Jurkat”, “1420” for “1920”

T1 sequence (P05556 21-798, one chain of several): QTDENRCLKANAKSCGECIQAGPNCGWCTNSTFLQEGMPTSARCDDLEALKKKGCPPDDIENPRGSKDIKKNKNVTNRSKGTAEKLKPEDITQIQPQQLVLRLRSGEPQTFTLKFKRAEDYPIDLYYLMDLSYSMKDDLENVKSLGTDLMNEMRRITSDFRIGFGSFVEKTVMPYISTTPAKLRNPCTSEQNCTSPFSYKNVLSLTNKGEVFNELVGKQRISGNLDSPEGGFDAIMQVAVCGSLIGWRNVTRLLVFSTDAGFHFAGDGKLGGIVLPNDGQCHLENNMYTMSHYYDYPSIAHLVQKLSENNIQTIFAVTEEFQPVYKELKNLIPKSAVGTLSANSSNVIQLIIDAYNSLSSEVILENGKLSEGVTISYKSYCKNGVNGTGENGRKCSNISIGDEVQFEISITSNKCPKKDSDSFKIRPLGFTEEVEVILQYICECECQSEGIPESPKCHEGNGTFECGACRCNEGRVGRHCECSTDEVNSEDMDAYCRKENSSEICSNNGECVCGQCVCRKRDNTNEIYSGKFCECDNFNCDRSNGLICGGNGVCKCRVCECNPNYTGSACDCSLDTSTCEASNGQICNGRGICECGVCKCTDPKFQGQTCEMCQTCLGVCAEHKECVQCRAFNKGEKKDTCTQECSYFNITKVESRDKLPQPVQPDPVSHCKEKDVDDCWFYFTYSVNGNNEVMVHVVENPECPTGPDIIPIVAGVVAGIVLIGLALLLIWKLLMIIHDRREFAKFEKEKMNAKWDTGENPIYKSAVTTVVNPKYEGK

Row | Compound | IC50 (integrin α4β1) | IC50 (integrin α4β7)
1 | Cn1c(=O)n(-c2ccc(C[C@H](NC(=O)c3c(Cl)cccc3Cl)C(=O)O)cc2)c(=O)c2cc(F)ccc21 [Example 189] | 18 nM | 1.1 nM
2 | COc1ccc2c(=O)n(-c3ccc(C[C@H](NC(=O)c4c(Cl)cccc4Cl)C(=O)O)cc3)c(=O)oc2c1 [Example 139] | 107 nM | 17 nM
3 | Cc1cccc2c1c(=O)n(-c1ccc(C[C@H](NC(=O)c3c(Cl)cccc3Cl)C(=O)O)cc1)c(=O)n2C [Example 181] | 15 nM | 1 nM
4 | O=C(N[C@@H](Cc1ccc(-n2c(=O)[nH]c3cccc(Cl)c3c2=O)cc1)C(=O)O)c1c(Cl)cccc1Cl [Example 54] | 71 nM | 9.8 nM
5 | O=C(N[C@@H](Cc1ccc(-n2c(=O)[nH]c3cc(C(F)(F)F)ccc3c2=O)cc1)C(=O)O)c1c(Cl)cccc1Cl [Example 49] | 1180 nM | 62.1 nM
6 | O=C(N[C@@H](Cc1ccc(-n2c(=O)oc3ccccc3c2=O)cc1)C(=O)O)c1c(Cl)cccc1Cl [Example 136] | 565 nM | 3 nM
7 | Cc1cccc2c(=O)n(-c3ccc(C[C@H](NC(=O)c4c(Cl)cccc4Cl)C(=O)O)cc3)c(=O)n(C)c12 [Example 186] | 59 nM | 4.3 nM
8 | CCn1c(=O)n(-c2ccc(C[C@H](NC(=O)c3c(Cl)cccc3Cl)C(=O)O)cc2)c(=O)c2ccccc21 [Example 3] | 66 nM | 3.5 nM
9 | Cn1c(=O)n(-c2ccc(C[C@H](NC(=O)c3c(Cl)cccc3Cl)C(=O)O)cc2)c(=O)c2cc(Cl)cc(Cl)c21 [Example 71] | 185 nM | 11 nM
10 | O=C(N[C@@H](Cc1ccc(-n2nnc3ccccc3c2=O)cc1)C(=O)O)c1c(Cl)cccc1Cl [Example 90] | 511 nM | 43.7 nM
11 | CCOc1nc2cc(F)ccc2c(=O)n1-c1ccc(C[C@H](NC(=O)c2c(Cl)cccc2Cl)C(=O)O)cc1 [Example 95] | 960 nM | 1.8 nM
12 | O=C(N[C@@H](Cc1ccc(-n2c(=O)[nH]c3ccccc3c2=O)cc1)C(=O)O)c1c(Cl)cccc1Cl [Example 2] | 240 nM | 9.2 nM
13 | COc1cccc2c(=O)n(-c3ccc(C[C@H](NC(=O)c4c(Cl)cccc4Cl)C(=O)O)cc3)c(=O)[nH]c12 [Example 46] | 195 nM | 6.8 nM
14 | COc1ccc(C(=O)CSc2nc3ccccc3c(=O)n2-c2ccc(C[C@H](NC(=O)c3c(Cl)cccc3Cl)C(=O)O)cc2)cc1 [Example 23] | 7240 nM | 18 nM
15 | O=C(N[C@@H](Cc1ccc(-n2c(-c3ccccc3)nc3ccccc3c2=O)cc1)C(=O)O)c1c(Cl)cccc1Cl [Example 35] | 1700 nM | 68 nM
16 | Cn1c(=O)n(-c2ccc(C[C@H](NC(=O)c3c(Cl)cccc3Cl)C(=O)O)cc2)c(=O)c2c(Cl)cccc21 [Example 187] | 26 nM | 3.2 nM
17 | Cn1c(=O)n(-c2ccc(C[C@H](NC(=O)c3c(Cl)cccc3Cl)C(=O)O)cc2)c(=O)c2cccnc21 [Example 74] | 53 nM | 2.5 nM
18 | Cn1c(=O)n(-c2ccc(C[C@H](NC(=O)C3CCCCC3)C(=O)O)cc2)c(=O)c2ccccc21 [Example 12] | 490 nM | 19 nM
19 | CN1CCC(=O)N(c2ccc(C[C@H](NC(=O)c3c(Cl)cccc3Cl)C(=O)O)cc2)C1=O [Example 135] | 570 nM | 12 nM
20 | Cc1nc2ccccc2c(=O)n1-c1ccc(C[C@H](NC(=O)c2c(Cl)cccc2Cl)C(=O)O)cc1 [Example 31] | 630 nM | 50 nM
21 | COc1ccc2c(c1)c(=O)n(-c1ccc(C[C@H](NC(=O)c3c(Cl)cccc3Cl)C(=O)O)cc1)c(=O)n2C [Example 184] | 31 nM | 3.3 nM
